Measured values from the supplement of paper PMC10307832.

Key:
Test in all cases: relative viability (nuclei count vs DMSO), 5 days (fraction); higher = more cells survive
Temozolomide + Olaparib = compound: Cn1nnc2c(C(N)=O)ncn2c1=O [Temozolomide] + O=C(c1cc(Cc2n[nH]c(=O)c3ccccc23)ccc1F)N1CCN(C(=O)C2CC2)CC1 [Olaparib] (partner 8 µM)
Outline: (§1)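 One day after seeding in 1536-well plates, lung cancer cell lines were dosed by pin tool. Dosing was either single-drug or a fixed anchor-drug dose plus five library-drug doses (not always all listed) in √10 steps. After 5 days, nuclei were stained in one fix-and-stain step and counted on 4× images, and relative viability is the nuclei count of treated wells over that of vehicle wells, given as the median of duplicate plates.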

[1] = compound: Cn1nnc2c(C(N)=O)ncn2c1=O [Temozolomide] + C[C@@H](Oc1cc(-c2cnn(C3CCNCC3)c2)cnc1N)c1c(Cl)ccc(F)c1Cl [Crizotinib] (partner 1 µM)
Outline: as §1

[2] = compound: Cn1nnc2c(C(N)=O)ncn2c1=O [Temozolomide] + Nc1ncn([C@H]2C[C@H](O)[C@@H](CO)O2)c(=O)n1 [Decitabine] (partner 2 µM)
Outline: as §1

AZD5582 + Lapatinib = compound: C[C@@H](C(=O)N[C@@H](C1CCCCC1)C(=O)N2CCC[C@H]2C(=O)N[C@@H]3[C@@H](CC4=CC=CC=C34)OCC#CC#CCO[C@@H]5CC6=CC=CC=C6[C@@H]5NC(=O)[C@@H]7CCCN7C(=O)[C@H](C8CCCCC8)NC(=O)[C@H](C)NC)NC [AZD5582] + CS(=O)(=O)CCNCc1ccc(-c2ccc3ncnc(Nc4ccc(OCc5cccc(F)c5)c(Cl)c4)c3c2)o1 [Lapatinib] (partner 2 µM)
Outline: as §1

Cell Line	relative viability (Temozolomide + Olaparib; first compound 0.2 µM)	relative viability (Temozolomide + Olaparib; first compound 0.6325 µM)	relative viability (Temozolomide + Olaparib; first compound 2 µM)	relative viability (Temozolomide + Olaparib; first compound 6.325 µM)	relative viability (Temozolomide + Olaparib; first compound 20 µM)	relative viability ([1]; first compound 0.2 µM)	relative viability ([1]; first compound 0.6325 µM)	relative viability ([1]; first compound 2 µM)	relative viability ([1]; first compound 6.325 µM)	relative viability ([1]; first compound 20 µM)	relative viability ([2]; first compound 0.2 µM)	relative viability ([2]; first compound 0.6325 µM)	relative viability ([2]; first compound 2 µM)	relative viability ([2]; first compound 6.325 µM)	relative viability ([2]; first compound 20 µM)	relative viability (AZD5582 + Lapatinib; first compound 0.001581 µM)	relative viability (AZD5582 + Lapatinib; first compound 0.005 µM)	relative viability (AZD5582 + Lapatinib; first compound 0.01581 µM)	relative viability (AZD5582 + Lapatinib; first compound 0.05 µM)
NCI-H596	0.685	0.694	0.764	0.677	0.657	1.07	0.978	1.06	1.04	0.884	1.13	1.07	1.03	1.02	0.905	0.851	0.829	0.959	0.326
NCI-H2405	0.896	0.831	0.998	0.832	0.492	0.882	0.863	0.955	0.771	0.822	0.773	0.779	0.863	0.699	0.673	1.11	1.21	–	1.01
PC-3 [JPC-3]	0.909	1.16	1.12	0.988	0.435	0.993	0.951	1.03	0.974	0.458	0.787	0.854	0.886	0.762	0.498	0.423	0.411	0.448	0.26
NCI-H1666	0.731	0.729	0.771	0.639	0.604	0.888	0.858	0.698	0.648	0.518	0.706	0.776	0.761	0.686	0.682	0.488	0.712	0.673	0.744
COR-L 105	0.585	0.577	0.636	0.661	0.693	0.739	0.913	0.827	0.787	0.841	0.691	0.643	0.649	0.739	0.535	0.351	0.424	0.315	0.421
NCI-H2085	0.773	0.765	0.797	0.677	0.491	0.746	0.904	0.651	0.866	0.685	0.63	0.599	0.587	0.589	0.471	0.667	0.818	0.654	0.731
SK-MES-1	0.824	0.632	0.648	0.532	0.414	1.14	0.969	1.03	0.947	0.997	0.417	0.391	0.362	0.335	0.368	0.492	0.648	0.455	0.571
NCI-H1734	0.708	0.586	0.577	0.614	0.373	0.707	0.704	0.684	0.647	0.656	0.535	0.536	0.56	0.522	0.452	1.03	1.2	0.99	1.23
NCI-H520	0.391	0.33	0.312	0.284	0.242	0.763	0.955	0.811	0.939	0.947	0.54	0.467	0.484	0.517	0.548	0.738	0.945	0.818	1.01
LK-2	0.736	0.702	0.593	0.355	0.257	0.26	0.229	0.252	0.206	0.213	0.318	0.284	0.263	0.225	0.211	0.654	1.03	0.965	0.952
LXF-289	1.11	1.13	1.03	0.951	0.774	0.825	0.82	0.761	0.791	0.76	0.388	0.403	0.367	0.373	0.391	0.895	0.929	0.823	0.922
EMC-BAC-2	0.667	0.504	0.455	0.367	0.271	0.842	0.74	0.789	0.768	0.804	1.01	1.05	1.01	0.993	0.927	0.782	0.903	0.865	0.564
201T	0.843	0.891	0.884	0.809	0.742	1.02	1.09	1.08	0.834	0.986	0.832	0.877	0.866	0.821	0.843	1.03	1.16	1.05	1.2
RERF-LC-KJ	0.975	1.05	0.998	0.846	0.799	0.884	0.848	0.838	0.818	0.833	0.738	0.78	0.733	0.617	0.712	0.732	0.748	0.8	0.83
SW 1573	0.585	0.534	0.424	0.302	0.236	0.801	0.787	0.82	0.594	0.846	0.589	0.535	0.577	0.456	0.462	0.954	1.28	1.24	1.09
NCI-H2347	0.59	0.538	0.614	0.603	0.472	0.695	0.712	0.715	0.651	0.645	0.613	0.645	0.669	0.595	0.604	0.882	0.944	0.818	0.712
NCI-H2126	0.875	0.903	0.852	0.921	0.831	1.05	0.984	0.974	1.07	1.05	0.554	0.611	0.596	0.639	0.589	0.845	0.854	0.719	0.75

Cell Line	relative viability (Temozolomide + Olaparib; first compound 0.2 µM)	relative viability (Temozolomide + Olaparib; first compound 0.6325 µM)	relative viability (Temozolomide + Olaparib; first compound 2 µM)	relative viability (Temozolomide + Olaparib; first compound 6.325 µM)	relative viability (Temozolomide + Olaparib; first compound 20 µM)	relative viability ([1]; first compound 0.2 µM)	relative viability ([1]; first compound 0.6325 µM)	relative viability ([1]; first compound 2 µM)	relative viability ([1]; first compound 6.325 µM)	relative viability ([1]; first compound 20 µM)	relative viability ([2]; first compound 0.2 µM)	relative viability ([2]; first compound 0.6325 µM)	relative viability ([2]; first compound 2 µM)	relative viability ([2]; first compound 6.325 µM)	relative viability ([2]; first compound 20 µM)	relative viability (AZD5582 + Lapatinib; first compound 0.001581 µM)	relative viability (AZD5582 + Lapatinib; first compound 0.005 µM)	relative viability (AZD5582 + Lapatinib; first compound 0.01581 µM)	relative viability (AZD5582 + Lapatinib; first compound 0.05 µM)
NCI-H1792	0.31	0.388	0.251	0.361	0.31	0.957	1.05	1	0.76	0.972	0.434	0.599	0.407	0.549	0.54	0.862	0.935	0.798	1.01
SK-LU-1	0.428	0.446	0.416	0.292	0.203	0.978	1.06	0.92	0.518	0.463	0.683	0.671	0.575	0.458	0.477	0.645	0.639	0.859	0.317
NCI-H1437	0.614	0.606	0.632	0.583	0.523	0.94	1.03	0.968	0.995	0.999	0.604	0.54	0.586	0.61	0.572	0.616	0.759	0.687	0.72
A549	0.358	0.344	0.345	0.17	0.117	0.809	0.829	0.869	0.754	0.816	0.314	0.184	0.289	0.246	0.207	0.896	0.983	0.898	0.851
NCI-H647	0.721	0.616	0.5	0.176	0.0916	1.3	1.1	1.09	0.85	0.318	0.339	0.429	0.337	0.283	0.293	0.839	0.943	0.98	0.767
LC-2-ad	0.671	0.72	0.696	0.591	0.468	0.455	0.443	0.51	0.443	0.437	0.795	0.766	0.775	0.874	0.665	0.966	1.07	0.888	0.904
NCI-H2087	0.698	0.723	0.698	0.502	0.378	0.898	0.74	0.892	0.803	0.871	0.306	0.314	0.322	0.281	0.299	0.929	1.06	0.808	1.08
NCI-H1944	0.428	0.38	0.377	0.315	0.27	0.817	1.08	1.18	1.06	0.975	0.398	0.389	0.439	0.368	0.399	0.767	0.961	0.82	0.882
COR-L23	0.374	0.377	0.318	0.257	0.189	0.925	0.701	0.669	0.503	0.614	0.452	0.493	0.478	0.419	0.404	0.982	1.08	1.07	1.1
NCI-H727	–	0.681	0.791	0.516	0.55	0.876	0.73	0.812	0.791	0.763	–	0.876	0.938	0.848	0.838	0.613	0.868	0.822	0.89
HCC-78	0.676	0.778	0.855	–	0.471	0.293	0.331	0.382	0.361	0.248	0.743	0.679	0.763	–	0.614	0.703	0.794	0.603	0.198
UMC-11	0.386	0.612	0.382	0.306	0.265	0.774	0.646	0.692	0.632	0.333	0.462	0.628	0.614	0.524	0.521	0.89	0.976	0.851	1.01
NCI-H2023	0.539	0.444	0.463	0.373	0.26	0.64	0.631	0.678	0.516	0.648	0.279	0.227	0.225	0.211	0.201	0.64	1.15	0.553	0.462
NCI-H1915	0.272	0.234	0.238	0.212	0.151	0.922	0.816	0.754	0.597	0.342	0.246	0.266	0.277	0.268	0.223	0.923	1.02	0.873	0.89
PC-14	0.279	0.371	0.228	0.171	0.153	0.954	0.902	0.829	0.812	0.732	0.27	0.241	0.245	0.21	0.182	0.301	0.391	0.33	0.223
LCLC-97TM1	0.512	0.447	0.436	0.238	0.226	0.344	0.237	0.342	0.33	0.375	0.232	0.245	0.223	0.216	0.253	–	0.627	0.404	0.294
LU99A	0.285	0.258	0.295	0.155	0.119	0.592	0.601	0.6	0.557	0.515	0.88	0.833	0.917	0.848	0.776	1.15	1.28	0.923	1.17
